Measured values: ChEMBL document CHEMBL4507276 (2021)

Assays:
[1] = biological target: Death-associated protein kinase 3 (Homo sapiens) (UniProt O43293); conditions: Compound concentration 1000.0 nM
[2] = biological target: Prostaglandin G/H synthase 1 (Homo sapiens) (UniProt P23219); assay: COX1_HU Cerep selectivity data (BI); conditions: Compound concentration 20.0 uM
[3] = biological target: Neuronal acetylcholine receptor; alpha4/beta2 (Homo sapiens) (UniProt P17787+P43681); assay: N_NEURO_A4B2 Cerep selectivity data (BI); type: protein-complex assay; conditions: filed as agonist, Compound concentration 20.0 uM
[4] = test system: Platelet-derived growth factor receptor alpha (Homo sapiens), P16234 [V561D]; assay: PDGFRA V561D Invitrogen selectivity data (BI); conditions: Compound concentration 3.0 uM
[5] = biological target: Urotensin-2 receptor (Homo sapiens) (UniProt Q9UKP6); assay: UT1/H AG Cerep selectivity data (BI); conditions: filed as agonist, Compound concentration 20.0 uM
[6] = biological target: Melatonin receptor type 1A (Homo sapiens) (UniProt P48039); assay: MT1 (ML1A) Cerep selectivity data (BI); conditions: Compound concentration 20.0 uM
[7] = biological target: T1, Serine/threonine-protein kinase Sgk3 (Homo sapiens) (UniProt Q96BR1); assay: SGKL Invitrogen selectivity data (BI); conditions: Compound concentration 3.0 uM
T1 sequence (whole entry): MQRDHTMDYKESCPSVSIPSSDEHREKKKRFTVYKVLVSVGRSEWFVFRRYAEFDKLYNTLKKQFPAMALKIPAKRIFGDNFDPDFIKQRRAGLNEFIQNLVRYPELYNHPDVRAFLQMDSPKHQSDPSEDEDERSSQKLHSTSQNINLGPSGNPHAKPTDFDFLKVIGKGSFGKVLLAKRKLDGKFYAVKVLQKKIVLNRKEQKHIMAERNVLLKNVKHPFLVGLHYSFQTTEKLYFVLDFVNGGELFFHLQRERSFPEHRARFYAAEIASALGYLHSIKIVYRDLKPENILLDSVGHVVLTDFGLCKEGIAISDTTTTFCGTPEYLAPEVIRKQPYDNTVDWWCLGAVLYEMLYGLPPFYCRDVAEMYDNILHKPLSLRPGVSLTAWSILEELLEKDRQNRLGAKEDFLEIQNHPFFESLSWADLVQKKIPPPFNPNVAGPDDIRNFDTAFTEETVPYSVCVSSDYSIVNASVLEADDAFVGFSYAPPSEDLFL

[8] = biological target: T2, Inhibitor of nuclear factor kappa-B kinase subunit alpha (Homo sapiens) (UniProt O15111); assay: CHUK_IKKA Invitrogen selectivity data (BI); conditions: Compound concentration 3.0 uM
T2 sequence (whole entry): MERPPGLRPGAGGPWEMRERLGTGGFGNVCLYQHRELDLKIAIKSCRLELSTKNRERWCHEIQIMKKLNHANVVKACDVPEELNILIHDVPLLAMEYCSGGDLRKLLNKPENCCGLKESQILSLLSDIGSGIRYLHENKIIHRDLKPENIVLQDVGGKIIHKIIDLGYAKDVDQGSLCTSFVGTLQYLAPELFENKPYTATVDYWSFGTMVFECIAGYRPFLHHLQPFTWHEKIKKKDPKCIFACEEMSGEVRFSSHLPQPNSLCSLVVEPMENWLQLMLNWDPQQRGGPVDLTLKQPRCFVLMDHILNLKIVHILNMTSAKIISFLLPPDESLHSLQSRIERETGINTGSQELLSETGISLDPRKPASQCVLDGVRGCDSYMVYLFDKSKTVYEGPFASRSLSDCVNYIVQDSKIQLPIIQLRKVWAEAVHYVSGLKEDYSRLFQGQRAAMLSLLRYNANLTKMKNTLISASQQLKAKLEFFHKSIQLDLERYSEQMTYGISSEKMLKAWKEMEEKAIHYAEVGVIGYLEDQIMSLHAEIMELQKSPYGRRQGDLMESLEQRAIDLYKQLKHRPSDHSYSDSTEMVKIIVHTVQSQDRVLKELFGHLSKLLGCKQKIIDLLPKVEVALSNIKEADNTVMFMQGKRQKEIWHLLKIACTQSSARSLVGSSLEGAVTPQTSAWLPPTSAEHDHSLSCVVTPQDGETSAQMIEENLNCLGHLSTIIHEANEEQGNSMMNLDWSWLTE

[9] = biological target: Bombesin receptor subtype-3 (Homo sapiens) (UniProt P32247); assay: BB3H_AGON Cerep selectivity data (BI); conditions: filed as agonist, Compound concentration 20.0 uM
[10] = biological target: Mitogen-activated protein kinase kinase kinase kinase 4 (Homo sapiens) (UniProt O95819); assay: MAP4K4 Invitrogen selectivity data (BI); conditions: Compound concentration 3.0 uM
Sequence of Mitogen-activated protein kinase kinase kinase kinase 4 (Homo sapiens) (O95819 2-1239 limits assumed): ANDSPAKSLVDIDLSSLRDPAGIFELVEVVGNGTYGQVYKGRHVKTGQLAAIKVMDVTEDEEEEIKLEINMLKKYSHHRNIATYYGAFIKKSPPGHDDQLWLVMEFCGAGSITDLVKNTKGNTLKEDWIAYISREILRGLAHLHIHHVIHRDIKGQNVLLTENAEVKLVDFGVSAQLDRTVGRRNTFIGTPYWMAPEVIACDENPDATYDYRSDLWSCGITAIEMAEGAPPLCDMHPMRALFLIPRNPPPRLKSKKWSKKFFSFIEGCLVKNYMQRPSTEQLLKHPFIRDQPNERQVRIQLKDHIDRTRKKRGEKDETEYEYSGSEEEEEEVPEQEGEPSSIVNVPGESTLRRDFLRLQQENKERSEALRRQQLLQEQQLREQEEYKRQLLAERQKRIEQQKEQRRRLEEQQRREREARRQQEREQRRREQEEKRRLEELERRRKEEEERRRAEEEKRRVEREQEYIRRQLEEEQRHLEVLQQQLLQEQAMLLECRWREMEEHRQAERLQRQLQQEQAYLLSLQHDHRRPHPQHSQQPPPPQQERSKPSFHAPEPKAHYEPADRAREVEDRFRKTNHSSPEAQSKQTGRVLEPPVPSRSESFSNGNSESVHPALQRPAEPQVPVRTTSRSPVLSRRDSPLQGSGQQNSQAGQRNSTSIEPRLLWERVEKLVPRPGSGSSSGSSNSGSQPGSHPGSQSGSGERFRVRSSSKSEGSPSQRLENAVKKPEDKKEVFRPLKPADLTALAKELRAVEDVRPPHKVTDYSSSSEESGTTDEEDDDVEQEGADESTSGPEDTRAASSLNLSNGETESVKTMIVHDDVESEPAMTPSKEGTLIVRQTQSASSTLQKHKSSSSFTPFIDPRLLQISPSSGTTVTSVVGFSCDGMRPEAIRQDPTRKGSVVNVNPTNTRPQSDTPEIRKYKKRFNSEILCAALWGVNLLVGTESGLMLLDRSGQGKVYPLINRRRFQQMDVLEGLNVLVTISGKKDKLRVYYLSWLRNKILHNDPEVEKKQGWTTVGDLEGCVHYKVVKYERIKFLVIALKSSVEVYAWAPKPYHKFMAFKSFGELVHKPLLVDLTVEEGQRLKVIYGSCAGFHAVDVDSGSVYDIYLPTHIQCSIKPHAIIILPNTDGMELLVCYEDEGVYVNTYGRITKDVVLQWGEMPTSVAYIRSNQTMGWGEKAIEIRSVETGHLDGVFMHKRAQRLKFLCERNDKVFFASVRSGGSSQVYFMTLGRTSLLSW

[11] = biological target: D(2) dopamine receptor (Homo sapiens) (UniProt P14416); assay: D2SH_AGON Cerep selectivity data (BI); conditions: filed as agonist, Compound concentration 20.0 uM
Sequence of D(2) dopamine receptor (Homo sapiens) (P14416 whole entry): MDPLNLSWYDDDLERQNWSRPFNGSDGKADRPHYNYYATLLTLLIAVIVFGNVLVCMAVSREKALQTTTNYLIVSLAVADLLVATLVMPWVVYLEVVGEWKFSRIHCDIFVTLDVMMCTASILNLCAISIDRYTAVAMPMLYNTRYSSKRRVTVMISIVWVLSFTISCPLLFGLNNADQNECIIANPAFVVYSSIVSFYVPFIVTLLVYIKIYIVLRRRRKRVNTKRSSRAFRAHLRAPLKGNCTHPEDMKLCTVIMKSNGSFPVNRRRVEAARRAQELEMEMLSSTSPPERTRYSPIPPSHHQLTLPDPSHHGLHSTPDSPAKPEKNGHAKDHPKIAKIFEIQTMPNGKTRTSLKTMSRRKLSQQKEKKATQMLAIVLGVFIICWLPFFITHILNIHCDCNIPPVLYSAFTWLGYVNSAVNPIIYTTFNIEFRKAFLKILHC

[12] = biological target: Tyrosine-protein kinase JAK1 (Homo sapiens) (UniProt P23458); assay: JAK1 Invitrogen selectivity data (BI); conditions: Compound concentration 3.0 uM
[13] = biological target: Sodium-dependent noradrenaline transporter (Homo sapiens) (UniProt P23975); assay: NETRANS/H Eurofins-Panlabs selectivity data (BI); conditions: Compound concentration 10.0 uM
[14] = biological target: Phosphatidylinositol 4-kinase alpha (Homo sapiens) (UniProt P42356); assay: PI4KA Invitrogen selectivity data (BI); conditions: Compound concentration 3.0 uM
Sequence of Phosphatidylinositol 4-kinase alpha (Homo sapiens) (P42356 whole entry, looked up): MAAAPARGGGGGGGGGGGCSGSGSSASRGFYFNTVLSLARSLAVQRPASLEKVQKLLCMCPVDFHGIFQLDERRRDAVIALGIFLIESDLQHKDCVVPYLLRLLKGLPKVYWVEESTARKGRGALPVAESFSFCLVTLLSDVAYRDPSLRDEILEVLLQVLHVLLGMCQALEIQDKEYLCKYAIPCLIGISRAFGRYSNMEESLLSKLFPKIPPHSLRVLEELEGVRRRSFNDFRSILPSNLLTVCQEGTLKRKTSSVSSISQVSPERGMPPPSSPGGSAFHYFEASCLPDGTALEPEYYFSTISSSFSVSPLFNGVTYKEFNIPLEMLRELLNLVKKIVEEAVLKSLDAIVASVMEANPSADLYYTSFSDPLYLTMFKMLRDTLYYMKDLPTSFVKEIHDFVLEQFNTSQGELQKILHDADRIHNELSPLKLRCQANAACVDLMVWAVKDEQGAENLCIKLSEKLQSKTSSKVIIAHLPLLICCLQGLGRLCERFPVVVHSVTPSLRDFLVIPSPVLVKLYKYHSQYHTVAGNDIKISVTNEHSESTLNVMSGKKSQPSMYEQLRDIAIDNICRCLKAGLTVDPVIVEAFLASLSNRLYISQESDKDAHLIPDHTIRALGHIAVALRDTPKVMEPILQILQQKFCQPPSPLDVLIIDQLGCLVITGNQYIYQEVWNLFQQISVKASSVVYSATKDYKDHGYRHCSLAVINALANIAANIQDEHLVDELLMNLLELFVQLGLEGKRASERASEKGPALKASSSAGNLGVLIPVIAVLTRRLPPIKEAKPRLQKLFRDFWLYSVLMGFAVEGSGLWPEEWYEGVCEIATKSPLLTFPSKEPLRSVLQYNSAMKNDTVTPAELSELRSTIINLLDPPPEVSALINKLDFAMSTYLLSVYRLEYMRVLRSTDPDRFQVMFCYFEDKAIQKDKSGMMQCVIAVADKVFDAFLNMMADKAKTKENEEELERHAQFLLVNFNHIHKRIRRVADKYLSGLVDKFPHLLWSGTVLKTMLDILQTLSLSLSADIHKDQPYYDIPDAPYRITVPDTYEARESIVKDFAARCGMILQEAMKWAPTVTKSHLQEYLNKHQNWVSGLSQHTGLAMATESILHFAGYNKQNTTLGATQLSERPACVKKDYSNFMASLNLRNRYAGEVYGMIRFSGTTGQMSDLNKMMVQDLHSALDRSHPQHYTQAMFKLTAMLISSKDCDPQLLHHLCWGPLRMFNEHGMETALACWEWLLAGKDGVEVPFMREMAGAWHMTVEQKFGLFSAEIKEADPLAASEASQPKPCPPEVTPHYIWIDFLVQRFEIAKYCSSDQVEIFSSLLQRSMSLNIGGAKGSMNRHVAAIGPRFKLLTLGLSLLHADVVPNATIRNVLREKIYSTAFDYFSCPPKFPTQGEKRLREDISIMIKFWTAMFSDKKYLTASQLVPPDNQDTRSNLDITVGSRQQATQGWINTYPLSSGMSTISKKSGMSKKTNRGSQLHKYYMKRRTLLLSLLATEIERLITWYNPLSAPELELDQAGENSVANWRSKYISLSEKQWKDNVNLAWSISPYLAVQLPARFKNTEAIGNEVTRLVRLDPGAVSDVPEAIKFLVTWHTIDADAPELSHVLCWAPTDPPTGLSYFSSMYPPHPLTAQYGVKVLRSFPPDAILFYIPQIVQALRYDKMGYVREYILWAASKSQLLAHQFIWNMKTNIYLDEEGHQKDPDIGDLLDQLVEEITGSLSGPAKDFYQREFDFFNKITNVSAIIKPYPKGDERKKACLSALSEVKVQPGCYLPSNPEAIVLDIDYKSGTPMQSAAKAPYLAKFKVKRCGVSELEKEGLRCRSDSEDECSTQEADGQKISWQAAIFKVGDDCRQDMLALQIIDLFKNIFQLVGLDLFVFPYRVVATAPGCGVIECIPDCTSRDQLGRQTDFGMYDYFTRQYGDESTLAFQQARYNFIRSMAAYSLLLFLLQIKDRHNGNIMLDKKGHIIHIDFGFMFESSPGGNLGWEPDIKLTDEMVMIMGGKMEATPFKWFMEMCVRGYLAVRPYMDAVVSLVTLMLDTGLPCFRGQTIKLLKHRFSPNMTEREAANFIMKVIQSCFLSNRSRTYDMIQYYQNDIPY

[15] = biological target: T3, Testis-specific serine/threonine-protein kinase 3 (Homo sapiens) (UniProt Q96PN8); assay: STK22D Invitrogen selectivity data (BI); conditions: Compound concentration 3.0 uM
T3 sequence (whole entry): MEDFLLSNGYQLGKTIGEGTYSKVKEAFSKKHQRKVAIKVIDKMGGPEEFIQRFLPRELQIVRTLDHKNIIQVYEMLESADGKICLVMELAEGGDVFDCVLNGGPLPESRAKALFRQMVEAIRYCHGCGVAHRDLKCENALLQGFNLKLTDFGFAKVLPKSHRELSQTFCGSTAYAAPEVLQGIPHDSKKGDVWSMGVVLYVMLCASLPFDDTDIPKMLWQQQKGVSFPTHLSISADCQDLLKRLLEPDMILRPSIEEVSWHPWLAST

[16] = biological target: Proto-oncogene tyrosine-protein kinase Src (Homo sapiens) (UniProt P12931); assay: SRC N1 Invitrogen selectivity data (BI); conditions: Compound concentration 3.0 uM
[17] = biological target: Mitogen-activated protein kinase 14 (Homo sapiens) (UniProt Q16539); assay: MAPK14 Invitrogen selectivity data (BI); conditions: Compound concentration 3.0 uM
[18] = biological target: T4, Serine/threonine-protein kinase Sgk2 (Homo sapiens) (UniProt Q9HBY8); assay: SGK2 Invitrogen selectivity data (BI); conditions: Compound concentration 3.0 uM
T4 sequence (whole entry): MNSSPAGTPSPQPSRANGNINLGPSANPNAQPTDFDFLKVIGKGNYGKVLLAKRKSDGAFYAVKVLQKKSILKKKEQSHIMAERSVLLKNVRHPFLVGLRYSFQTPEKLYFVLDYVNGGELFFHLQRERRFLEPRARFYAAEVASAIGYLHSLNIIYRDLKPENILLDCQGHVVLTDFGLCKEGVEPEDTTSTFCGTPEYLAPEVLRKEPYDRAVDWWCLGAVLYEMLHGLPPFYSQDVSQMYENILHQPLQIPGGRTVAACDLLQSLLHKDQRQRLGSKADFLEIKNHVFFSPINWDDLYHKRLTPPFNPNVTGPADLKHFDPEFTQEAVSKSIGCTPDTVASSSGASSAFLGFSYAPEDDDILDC

[19] = biological target: 5-hydroxytryptamine receptor 2B (Homo sapiens) (UniProt P41595); assay: 5HT2B/H AG Cerep selectivity data (BI); conditions: filed as agonist, Compound concentration 20.0 uM
[20] = biological target: Mitogen-activated protein kinase kinase kinase 9 (Homo sapiens) (UniProt P80192); assay: MAP3K9 Invitrogen selectivity data (BI); conditions: Compound concentration 3.0 uM
Sequence of Mitogen-activated protein kinase kinase kinase 9 (Homo sapiens) (P80192 whole entry, looked up): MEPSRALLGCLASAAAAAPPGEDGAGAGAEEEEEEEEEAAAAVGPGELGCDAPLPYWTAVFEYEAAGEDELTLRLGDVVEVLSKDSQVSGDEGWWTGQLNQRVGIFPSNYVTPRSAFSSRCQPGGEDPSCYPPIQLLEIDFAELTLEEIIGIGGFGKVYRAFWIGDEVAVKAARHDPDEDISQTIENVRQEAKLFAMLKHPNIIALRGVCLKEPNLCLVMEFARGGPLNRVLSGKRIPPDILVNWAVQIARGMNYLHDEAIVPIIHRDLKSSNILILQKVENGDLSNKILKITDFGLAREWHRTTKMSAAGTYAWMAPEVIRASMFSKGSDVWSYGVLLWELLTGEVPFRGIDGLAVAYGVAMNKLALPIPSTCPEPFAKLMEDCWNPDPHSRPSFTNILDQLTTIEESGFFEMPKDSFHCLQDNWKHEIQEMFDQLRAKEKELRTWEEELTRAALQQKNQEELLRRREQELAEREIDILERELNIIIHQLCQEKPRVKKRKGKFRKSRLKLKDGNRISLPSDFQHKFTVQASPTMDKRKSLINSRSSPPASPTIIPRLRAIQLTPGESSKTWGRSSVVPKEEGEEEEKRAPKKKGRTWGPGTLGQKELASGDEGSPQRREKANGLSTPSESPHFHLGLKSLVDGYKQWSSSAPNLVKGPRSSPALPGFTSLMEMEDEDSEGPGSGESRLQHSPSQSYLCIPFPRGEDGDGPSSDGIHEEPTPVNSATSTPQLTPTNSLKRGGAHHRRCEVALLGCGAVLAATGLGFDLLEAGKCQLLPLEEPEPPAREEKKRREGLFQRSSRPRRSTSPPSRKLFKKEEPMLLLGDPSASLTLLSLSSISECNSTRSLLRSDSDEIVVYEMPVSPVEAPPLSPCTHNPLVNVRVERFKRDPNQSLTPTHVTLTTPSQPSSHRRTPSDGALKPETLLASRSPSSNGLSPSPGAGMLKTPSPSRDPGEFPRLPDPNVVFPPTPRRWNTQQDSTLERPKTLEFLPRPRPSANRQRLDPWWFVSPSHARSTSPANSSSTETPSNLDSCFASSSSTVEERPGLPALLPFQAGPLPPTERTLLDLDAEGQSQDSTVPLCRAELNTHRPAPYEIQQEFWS

Measured: residual activity

CN(C)C(=O)Cn1cc(-c2nc(C3(c4ccc(-c5cnc(N)nc5)cc4)CC3)no2)cn1 [BI 0153]
inactive: [1] 92%

CN(C)C(=O)Cn1cc(-c2nc([C@@](C)(c3ccc(-c4cnc(N)nc4)cc3)C3CC3)no2)cn1 [BI 665915]
inactive: [2] 62% | [3] 113% | [4] 85% | [5] 99% | [6] 91% | [7] 101% | [8] 99.5% | [9] 108% | [10] 96.5% | [11] 95% | [12] 100% | [13] 103% | [14] 106% | [15] 96.5% | [16] 85% | [17] 107% | [18] 97% | [19] 103% | [20] 91%
